Several values for one entry are separate records, joined by “and”; a condition that tells them apart may be missing. Equal values may be shown once.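 Growth conditions: 96-well plates. Treatment: test compound, 48 hours, 5 concentrations. Analysis: linear interpolation between bracketing concentrations; unreached endpoints set to highest concentration. Abbreviation: GI50, concentration required for 50% inhibition of growth. TGI is the concentration that stops growth completely.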
Assays:
Experiment in all cases: DTP human tumour cell line panel, 48 h
HCC-2998 colon = tested on: HCC-2998 colon
NCI-H460 lung = tested on: NCI-H460 lung
SK-OV-3 ovarian = tested on: SK-OV-3 ovarian
MOLT-4 leukemia = tested on: MOLT-4 leukemia
SN12C renal = tested on: SN12C renal
SNB-19 CNS = tested on: SNB-19 CNS
OVCAR-4 ovarian = tested on: OVCAR-4 ovarian
HOP-18 NSCLC = tested on: HOP-18 NSCLC
HS 578T breast = tested on: HS 578T breast
SR leukemia = tested on: SR leukemia
UO-31 renal = tested on: UO-31 renal
786-0 renal = tested on: 786-0 renal
M14 melanoma = tested on: M14 melanoma
M19-MEL melanoma = tested on: M19-MEL melanoma
ACHN renal = tested on: ACHN renal
SF-295 CNS = tested on: SF-295 CNS
CAKI-1 renal = tested on: CAKI-1 renal
OVCAR-8 ovarian = tested on: OVCAR-8 ovarian
EKVX NSCLC = tested on: EKVX NSCLC
DU-145 prostate = tested on: DU-145 prostate
MDA-MB-231 breast = tested on: MDA-MB-231 breast
MALME-3M melanoma = tested on: MALME-3M melanoma
SF-539 CNS = tested on: SF-539 CNS
DMS 273 small cell lung = tested on: DMS 273 small cell lung
U251 CNS = tested on: U251 CNS
DMS 114 small cell lung = tested on: DMS 114 small cell lung
NCI-H23 lung = tested on: NCI-H23 lung
COLO 205 colon = tested on: COLO 205 colon
IGROV1 ovarian = tested on: IGROV1 ovarian
HOP-92 NSCLC = tested on: HOP-92 NSCLC
HCT-116 colon = tested on: HCT-116 colon
TK-10 renal = tested on: TK-10 renal
SF-268 CNS = tested on: SF-268 CNS
KM12 colon = tested on: KM12 colon
RXF 393 renal = tested on: RXF 393 renal
BT-549 breast = tested on: BT-549 breast
SNB-75 CNS = tested on: SNB-75 CNS
MDA-N = tested on: MDA-N
SK-MEL-2 melanoma = tested on: SK-MEL-2 melanoma
OVCAR-3 ovarian = tested on: OVCAR-3 ovarian
HCT-15 colon = tested on: HCT-15 colon
PC-3 prostate = tested on: PC-3 prostate
A549 NSCLC = tested on: A549 NSCLC
LOX IMVI melanoma = tested on: LOX IMVI melanoma
UACC-257 melanoma = tested on: UACC-257 melanoma
RXF-631 renal = tested on: RXF-631 renal
DLD-1 colon = tested on: DLD-1 colon
KM20L2 colon = tested on: KM20L2 colon
SK-MEL-5 melanoma = tested on: SK-MEL-5 melanoma
HT29 colon = tested on: HT29 colon
SNB-78 CNS = tested on: SNB-78 CNS
LXFL 529 NSCLC = tested on: LXFL 529 NSCLC
UACC-62 melanoma = tested on: UACC-62 melanoma
K-562 leukemia = tested on: K-562 leukemia
HOP-62 NSCLC = tested on: HOP-62 NSCLC
T-47D breast = tested on: T-47D breast
HL-60(TB) leukemia = tested on: HL-60(TB) leukemia
OVCAR-5 ovarian = tested on: OVCAR-5 ovarian
NCI-H226 lung = tested on: NCI-H226 lung
RPMI-8226 leukemia = tested on: RPMI-8226 leukemia
SK-MEL-28 melanoma = tested on: SK-MEL-28 melanoma
MDA-MB-435 = tested on: MDA-MB-435
A498 renal = tested on: A498 renal
CCRF-CEM leukemia = tested on: CCRF-CEM leukemia
NCI-H522 lung = tested on: NCI-H522 lung
SW-620 colon = tested on: SW-620 colon
NCI/ADR-RES ovarian = tested on: NCI/ADR-RES ovarian
MCF7 breast = tested on: MCF7 breast
XF 498 CNS = tested on: XF 498 CNS

## O=C1/C(=C/c2ccc3c(c2)OCO3)CCC1CN1CCOCC1 (configuration not stated)
HCC-2998 colon
  TGI: 17.4 µM
NCI-H460 lung
  TGI: 33.4 µM
SK-OV-3 ovarian
  TGI: 32.9 µM
MOLT-4 leukemia
  TGI: 9.46 µM
SN12C renal
  TGI: 12 µM
SNB-19 CNS
  TGI: 31.2 µM
OVCAR-4 ovarian
  TGI: 18.8 µM
HOP-18 NSCLC
  TGI: 31.4 µM
HS 578T breast
  TGI: 14.8 µM
SR leukemia
  TGI: 5.42 µM
UO-31 renal
  TGI: 29.2 µM
786-0 renal
  TGI: 11.3 µM
M14 melanoma
  TGI: 15.3 µM
M19-MEL melanoma
  TGI: 10 µM
ACHN renal
  TGI: 24 µM
SF-295 CNS
  TGI: 33.7 µM
CAKI-1 renal
  TGI: 9.21 µM
OVCAR-8 ovarian
  TGI: 21.4 µM
EKVX NSCLC
  TGI: 34.7 µM
DU-145 prostate
  TGI: 29.6 µM
MDA-MB-231 breast
  TGI: 7.73 µM
MALME-3M melanoma
  TGI: 22.6 µM
SF-539 CNS
  TGI: 28.1 µM
DMS 273 small cell lung
  TGI: 25.3 µM
U251 CNS
  TGI: 14.3 µM
DMS 114 small cell lung
  TGI: 15.6 µM
NCI-H23 lung
  TGI: 25.1 µM
COLO 205 colon
  TGI: 35.8 µM
IGROV1 ovarian
  TGI: 40.1 µM
HOP-92 NSCLC
  TGI: 29.3 µM
HCT-116 colon
  TGI: 14.5 µM
TK-10 renal
  TGI: 21.6 µM
SF-268 CNS
  TGI: 28.8 µM
KM12 colon
  TGI: 11 µM
RXF 393 renal
  TGI: 24.7 µM
BT-549 breast
  TGI: 42.1 µM
SNB-75 CNS
  TGI: 28.7 µM
MDA-N
  TGI: 4.07 µM
SK-MEL-2 melanoma
  TGI: 28.6 µM
OVCAR-3 ovarian
  TGI: 20.5 µM
HCT-15 colon
  TGI: 8.46 µM
PC-3 prostate
  TGI: 4.49 µM
A549 NSCLC
  TGI: 43.3 µM
LOX IMVI melanoma
  TGI: 7.84 µM
UACC-257 melanoma
  TGI: 22.6 µM
RXF-631 renal
  TGI: 44.7 µM
DLD-1 colon
  TGI: 6.31 µM
KM20L2 colon
  TGI: 36.9 µM
SK-MEL-5 melanoma
  TGI: 20.4 µM
HT29 colon
  TGI: 38.5 µM
SNB-78 CNS
  TGI: 41.8 µM
LXFL 529 NSCLC
  TGI: 7.68 µM
UACC-62 melanoma
  TGI: 20.5 µM
K-562 leukemia
  TGI: 8.42 µM
HOP-62 NSCLC
  TGI: 25.6 µM
T-47D breast
  TGI: 42.3 µM
HL-60(TB) leukemia
  TGI: 3.99 µM
OVCAR-5 ovarian
  TGI: 31.8 µM
NCI-H226 lung
  TGI: 33.8 µM
RPMI-8226 leukemia
  TGI: 1.73 µM
SK-MEL-28 melanoma
  TGI: 10.4 µM
MDA-MB-435
  TGI: 40.6 µM
A498 renal
  TGI: 23.9 µM
CCRF-CEM leukemia
  TGI: 5.91 µM
NCI-H522 lung
  TGI: 2.78 µM
SW-620 colon
  TGI: 4.83 µM

## CCCCCCCCCCC(O)[C@H]1CCC(C2CC[C@H]([C@H](O)CCCCCCCCCCC(O)CC3=CC(C)OC3=O)O2)O1 (some centres not stated)
HCC-2998 colon
  TGI: 15 µM
NCI-H460 lung
  GI50: 2.16 µM
  TGI: 4.12 µM and 29.9 µM
SK-OV-3 ovarian
  TGI: 15.7 µM
MOLT-4 leukemia
  TGI: 3.69 µM
SN12C renal
  GI50: 1.76 µM
SNB-19 CNS
  GI50: 2.05 µM
  TGI: 6.96 µM and 32.1 µM
OVCAR-4 ovarian
  TGI: 11.7 µM
HS 578T breast
  TGI: 3.5 µM
SR leukemia
  TGI: 9.23 µM
UO-31 renal
  TGI: 2.36 µM and 2.67 µM
786-0 renal
  GI50: 2.68 µM
  TGI: 7.1 µM
M14 melanoma
  GI50: 7 µM
M19-MEL melanoma
  TGI: 8.92 µM
ACHN renal
  TGI: 2.9 µM
SF-295 CNS
  GI50: 0.29 µM
  TGI: 14.1 µM
CAKI-1 renal
  GI50: 4.09 µM
OVCAR-8 ovarian
  GI50: 2.29 µM
  TGI: 2.8 µM and 18.4 µM
EKVX NSCLC
  GI50: 2.09 µM
MDA-MB-231 breast
  TGI: 4.23 µM
MALME-3M melanoma
  TGI: 4.32 µM
SF-539 CNS
  TGI: 2.9 µM and 5.61 µM
DMS 273 small cell lung
  TGI: 4.4 µM
U251 CNS
  GI50: 3.58 µM
  TGI: > 100 µM
DMS 114 small cell lung
  TGI: 3.01 µM
NCI-H23 lung
  GI50: < 0.01 µM
  TGI: 4.03 µM and 7.12 µM
COLO 205 colon
  GI50: 2.17 µM
  TGI: 2.84 µM and 5.12 µM
HOP-92 NSCLC
  TGI: 5.87 µM and 6.72 µM
HCT-116 colon
  GI50: 2.24 µM
  TGI: 8.87 µM and 10 µM
TK-10 renal
  GI50: 4.05 µM
SF-268 CNS
  GI50: 1.11 µM
  TGI: 3.67 µM and 8.61 µM
KM12 colon
  TGI: 3.66 µM
RXF 393 renal
  TGI: 5 µM
SNB-75 CNS
  GI50: 2.25 µM
  TGI: 5.08 µM and 5.94 µM
SK-MEL-2 melanoma
  GI50: 1.76 µM
  TGI: 3.43 µM and 4.72 µM
OVCAR-3 ovarian
  GI50: 0.674 µM
  TGI: 4.01 µM and 3.32 µM
HCT-15 colon
  GI50: 1.23 µM
  TGI: 3.7 µM and 5.88 µM
PC-3 prostate
  TGI: 3.73 µM
A549 NSCLC
  GI50: 2.96 µM
  TGI: > 100 µM
LOX IMVI melanoma
  GI50: 1.18 µM
  TGI: 3.09 µM and 2.92 µM
UACC-257 melanoma
  TGI: 4.83 µM and 5.13 µM
RXF-631 renal
  TGI: 8.13 µM
DLD-1 colon
  TGI: > 100 µM
KM20L2 colon
  TGI: 19.4 µM
SK-MEL-5 melanoma
  GI50: < 0.01 µM
  TGI: 2.47 µM and 1.74 µM
HT29 colon
  TGI: 2.88 µM and 14.4 µM
SNB-78 CNS
  TGI: 8.16 µM
LXFL 529 NSCLC
  TGI: 9.79 µM
UACC-62 melanoma
  GI50: 1.97 µM
  TGI: 4.03 µM and 14.2 µM
K-562 leukemia
  GI50: < 0.01 µM
  TGI: 4.55 µM
HOP-62 NSCLC
  TGI: 4.89 µM and 5.88 µM
HL-60(TB) leukemia
  TGI: 6.37 µM
OVCAR-5 ovarian
  GI50: 2.58 µM
  TGI: 9.11 µM
NCI-H226 lung
  TGI: 2.57 µM and 3.36 µM
RPMI-8226 leukemia
  GI50: 0.615 µM
  TGI: 3.2 µM
SK-MEL-28 melanoma
  TGI: 7.73 µM
A498 renal
  GI50: 3.15 µM
  TGI: 9.03 µM and 53.2 µM
CCRF-CEM leukemia
  TGI: 5.37 µM
NCI/ADR-RES ovarian
  TGI: 2.11 µM
NCI-H522 lung
  TGI: 5.06 µM
SW-620 colon
  GI50: 2.51 µM
  TGI: 6.83 µM and 12 µM
MCF7 breast
  TGI: 4.44 µM

## COc1ccc2cc1Oc1ccc(cc1)C[C@@H]1c3cc(c(OC)cc3CCN1C)Oc1c(OC)c(OC)cc3c1[C@@H](C2)N(C)CC3
HCC-2998 colon
  TGI: 30.7 µM
NCI-H460 lung
  TGI: 27.3 µM
SK-OV-3 ovarian
  TGI: 41.2 µM
SNB-19 CNS
  TGI: 30.8 µM
SR leukemia
  TGI: 43.3 µM
M14 melanoma
  TGI: 4.01 µM
ACHN renal
  TGI: 34.8 µM
XF 498 CNS
  TGI: 19.3 µM
SF-295 CNS
  TGI: 31.3 µM
OVCAR-8 ovarian
  TGI: 28.2 µM
SF-539 CNS
  TGI: 23 µM
DMS 273 small cell lung
  TGI: 35.3 µM
U251 CNS
  TGI: 26 µM
NCI-H23 lung
  TGI: 33.7 µM
IGROV1 ovarian
  TGI: 40.8 µM
HOP-92 NSCLC
  TGI: 26.9 µM
HCT-116 colon
  TGI: 13 µM
TK-10 renal
  TGI: 33.5 µM
SF-268 CNS
  TGI: 52.4 µM
RXF 393 renal
  TGI: 8.77 µM
SNB-75 CNS
  TGI: 23.7 µM
OVCAR-3 ovarian
  TGI: 33.8 µM
HCT-15 colon
  TGI: 30 µM
UACC-257 melanoma
  TGI: 28.1 µM
RXF-631 renal
  TGI: 30 µM
DLD-1 colon
  TGI: 71.6 µM
KM20L2 colon
  TGI: 21.3 µM
SK-MEL-5 melanoma
  TGI: 33.8 µM
SNB-78 CNS
  TGI: 31.6 µM
LXFL 529 NSCLC
  TGI: 32.7 µM
K-562 leukemia
  TGI: 9.77 µM
HOP-62 NSCLC
  TGI: 35.8 µM
HL-60(TB) leukemia
  TGI: 39.9 µM
RPMI-8226 leukemia
  TGI: 39.9 µM
A498 renal
  TGI: 32.5 µM
CCRF-CEM leukemia
  TGI: 35 µM
NCI-H522 lung
  TGI: 30 µM

Source: PubChem BioAssay (NCI)
